# Measurements reported in the NIST ThermoML archive (doi:10.1016/j.jct.2007.05.015).
# ± gives the expanded uncertainty stated by the source.
# Test: xn = mol fraction of the nth substance listed
# Details: 298.15 K, 101 kPa, Liquid
smiles,measurement,setting,value
CN1CCCC1=O [N-methylpyrrolidone] + O,mass density,x1 = 0.02533,1004.51 ± 0.53 kg/m3
same,speed of sound,x1 = 0.02533,1573.6 ± 6.1 m/s
same,mass density,x1 = 0.06006,1014.28 ± 0.59 kg/m3
same,speed of sound,x1 = 0.06006,1646.8 ± 6.3 m/s
same,mass density,x1 = 0.08026,1020.63 ± 0.63 kg/m3
same,speed of sound,x1 = 0.08026,1684.4 ± 6.5 m/s
same,mass density,x1 = 0.1008,1025.71 ± 0.67 kg/m3
same,speed of sound,x1 = 0.1008,1724.7 ± 6.6 m/s
same,mass density,x1 = 0.1191,1030.16 ± 0.69 kg/m3
same,speed of sound,x1 = 0.1191,1731.2 ± 6.6 m/s
same,mass density,x1 = 0.1399,1034.69 ± 0.72 kg/m3
same,speed of sound,x1 = 0.1399,1745.2 ± 6.7 m/s
same,mass density,x1 = 0.1596,1038.09 ± 0.75 kg/m3
same,speed of sound,x1 = 0.1596,1747.7 ± 6.7 m/s
same,mass density,x1 = 0.1779,1040.14 ± 0.76 kg/m3
same,speed of sound,x1 = 0.1779,1749.2 ± 6.7 m/s
same,mass density,x1 = 0.1964,1041.52 ± 0.77 kg/m3
same,speed of sound,x1 = 0.1964,1751.7 ± 6.7 m/s
same,mass density,x1 = 0.2203,1042.98 ± 0.78 kg/m3
same,speed of sound,x1 = 0.2203,1750.7 ± 6.7 m/s
same,mass density,x1 = 0.2399,1044.35 ± 0.8 kg/m3
same,speed of sound,x1 = 0.2399,1750.1 ± 6.7 m/s
same,mass density,x1 = 0.2602,1045.7 ± 0.81 kg/m3
same,speed of sound,x1 = 0.2602,1745.3 ± 6.7 m/s
same,mass density,x1 = 0.278,1046 ± 0.81 kg/m3
same,speed of sound,x1 = 0.278,1741.8 ± 6.7 m/s
same,mass density,x1 = 0.2987,1046.27 ± 0.81 kg/m3
same,speed of sound,x1 = 0.2987,1735.4 ± 6.6 m/s
same,mass density,x1 = 0.3296,1046.23 ± 0.82 kg/m3
same,speed of sound,x1 = 0.3296,1725.6 ± 6.6 m/s
same,mass density,x1 = 0.3794,1045.76 ± 0.82 kg/m3
same,speed of sound,x1 = 0.3794,1707.8 ± 6.5 m/s
same,mass density,x1 = 0.4497,1044.33 ± 0.83 kg/m3
same,speed of sound,x1 = 0.4497,1687.1 ± 6.5 m/s
same,mass density,x1 = 0.4986,1043.54 ± 0.83 kg/m3
same,speed of sound,x1 = 0.4986,1670 ± 6.4 m/s
same,mass density,x1 = 0.5494,1041.35 ± 0.83 kg/m3
same,speed of sound,x1 = 0.5494,1651.2 ± 6.4 m/s
same,mass density,x1 = 0.5978,1039.92 ± 0.83 kg/m3
same,speed of sound,x1 = 0.5978,1633.6 ± 6.3 m/s
same,mass density,x1 = 0.649,1037.65 ± 0.83 kg/m3
same,speed of sound,x1 = 0.649,1621 ± 6.3 m/s
same,mass density,x1 = 0.6998,1035.76 ± 0.83 kg/m3
same,speed of sound,x1 = 0.6998,1610.2 ± 6.3 m/s
same,mass density,x1 = 0.7893,1032.74 ± 0.84 kg/m3
same,speed of sound,x1 = 0.7893,1587.7 ± 6.2 m/s
same,mass density,x1 = 0.8199,1031.82 ± 0.84 kg/m3
same,speed of sound,x1 = 0.8199,1574.4 ± 6.2 m/s
same,mass density,x1 = 0.8333,1031.01 ± 0.84 kg/m3
same,speed of sound,x1 = 0.8333,1568.3 ± 6.2 m/s
same,mass density,x1 = 0.8826,1030.54 ± 0.85 kg/m3
same,speed of sound,x1 = 0.8826,1563.8 ± 6.2 m/s
same,mass density,x1 = 0.8976,1029.93 ± 0.86 kg/m3
same,speed of sound,x1 = 0.8976,1558.4 ± 6.1 m/s
same,mass density,x1 = 0.9553,1028.92 ± 0.87 kg/m3
same,speed of sound,x1 = 0.9553,1552.2 ± 6.1 m/s
same,mass density,x1 = 1,1028.23 ± 0.88 kg/m3
same,speed of sound,x1 = 1,1531.5 ± 6.1 m/s
CN(C)C=O [dimethylformamide] + O,mass density,x1 = 0.01233,996.44 ± 0.52 kg/m3
same,speed of sound,x1 = 0.01233,1526.3 ± 6 m/s
same,mass density,x1 = 0.0266,996.21 ± 0.52 kg/m3
same,speed of sound,x1 = 0.0266,1555.7 ± 6.1 m/s
same,mass density,x1 = 0.0276,996.23 ± 0.52 kg/m3
same,speed of sound,x1 = 0.0276,1554.2 ± 6.1 m/s
same,mass density,x1 = 0.04154,996.18 ± 0.52 kg/m3
same,speed of sound,x1 = 0.04154,1582.3 ± 6.1 m/s
same,mass density,x1 = 0.05803,996.38 ± 0.52 kg/m3
same,speed of sound,x1 = 0.05803,1607.4 ± 6.2 m/s
same,mass density,x1 = 0.07593,996.62 ± 0.52 kg/m3
same,speed of sound,x1 = 0.07593,1628.8 ± 6.3 m/s
same,mass density,x1 = 0.09542,996.84 ± 0.52 kg/m3
same,speed of sound,x1 = 0.09542,1647.5 ± 6.3 m/s
same,mass density,x1 = 0.1173,997.02 ± 0.52 kg/m3
same,speed of sound,x1 = 0.1173,1659 ± 6.4 m/s
same,mass density,x1 = 0.1412,996.93 ± 0.52 kg/m3
same,speed of sound,x1 = 0.1412,1675.5 ± 6.4 m/s
same,mass density,x1 = 0.1677,996.02 ± 0.52 kg/m3
same,speed of sound,x1 = 0.1677,1684.6 ± 6.5 m/s
same,mass density,x1 = 0.1975,995.1 ± 0.53 kg/m3
same,speed of sound,x1 = 0.1975,1688.2 ± 6.5 m/s
same,mass density,x1 = 0.23,993.87 ± 0.54 kg/m3
same,speed of sound,x1 = 0.23,1687.8 ± 6.5 m/s
same,mass density,x1 = 0.2866,990.18 ± 0.56 kg/m3
same,speed of sound,x1 = 0.2866,1676.6 ± 6.4 m/s
same,mass density,x1 = 0.3139,989.17 ± 0.57 kg/m3
same,speed of sound,x1 = 0.3139,1669.3 ± 6.4 m/s
same,mass density,x1 = 0.3771,984.28 ± 0.6 kg/m3
same,speed of sound,x1 = 0.3771,1647.7 ± 6.3 m/s
same,mass density,x1 = 0.4247,981.19 ± 0.62 kg/m3
same,speed of sound,x1 = 0.4247,1629.1 ± 6.3 m/s
same,mass density,x1 = 0.4494,979.47 ± 0.63 kg/m3
same,speed of sound,x1 = 0.4494,1620.3 ± 6.3 m/s
same,mass density,x1 = 0.4755,977.79 ± 0.64 kg/m3
same,speed of sound,x1 = 0.4755,1610.1 ± 6.2 m/s
same,mass density,x1 = 0.4955,976.4 ± 0.65 kg/m3
same,speed of sound,x1 = 0.4955,1599.5 ± 6.2 m/s
same,mass density,x1 = 0.5203,974.98 ± 0.66 kg/m3
same,speed of sound,x1 = 0.5203,1592 ± 6.2 m/s
same,mass density,x1 = 0.5336,974.17 ± 0.66 kg/m3
same,speed of sound,x1 = 0.5336,1585.7 ± 6.2 m/s
same,mass density,x1 = 0.555,972.69 ± 0.67 kg/m3
same,speed of sound,x1 = 0.555,1572.1 ± 6.1 m/s
same,mass density,x1 = 0.5806,970.92 ± 0.68 kg/m3
same,speed of sound,x1 = 0.5806,1565.8 ± 6.1 m/s
same,mass density,x1 = 0.6169,968.9 ± 0.7 kg/m3
same,speed of sound,x1 = 0.6169,1559 ± 6.1 m/s
same,mass density,x1 = 0.637,967.32 ± 0.71 kg/m3
same,speed of sound,x1 = 0.637,1550.5 ± 6 m/s
same,mass density,x1 = 0.6551,965.83 ± 0.72 kg/m3
same,speed of sound,x1 = 0.6551,1545.2 ± 6 m/s
same,mass density,x1 = 0.6931,963.35 ± 0.73 kg/m3
same,speed of sound,x1 = 0.6931,1538.2 ± 6 m/s
same,mass density,x1 = 0.7172,961.78 ± 0.74 kg/m3
same,speed of sound,x1 = 0.7172,1527.7 ± 6 m/s
same,mass density,x1 = 0.7373,960.6 ± 0.75 kg/m3
same,speed of sound,x1 = 0.7373,1519.7 ± 6 m/s
same,mass density,x1 = 0.753,959.56 ± 0.75 kg/m3
same,speed of sound,x1 = 0.753,1514.8 ± 5.9 m/s
same,mass density,x1 = 0.7666,958.73 ± 0.76 kg/m3
same,speed of sound,x1 = 0.7666,1512.3 ± 5.9 m/s
same,mass density,x1 = 0.8037,956.19 ± 0.78 kg/m3
same,speed of sound,x1 = 0.8037,1504.3 ± 5.9 m/s
same,mass density,x1 = 0.8126,955.54 ± 0.78 kg/m3
same,speed of sound,x1 = 0.8126,1501.2 ± 5.9 m/s
same,mass density,x1 = 0.8469,953.57 ± 0.79 kg/m3
same,speed of sound,x1 = 0.8469,1493 ± 5.9 m/s
same,mass density,x1 = 0.8694,952.12 ± 0.8 kg/m3
same,speed of sound,x1 = 0.8694,1491.4 ± 5.9 m/s
same,mass density,x1 = 0.8911,950.68 ± 0.81 kg/m3
same,speed of sound,x1 = 0.8911,1488.4 ± 5.8 m/s
same,mass density,x1 = 0.925,948.01 ± 0.83 kg/m3
same,speed of sound,x1 = 0.925,1476.6 ± 5.8 m/s
same,mass density,x1 = 0.9661,946.28 ± 0.84 kg/m3
same,speed of sound,x1 = 0.9661,1469.1 ± 5.8 m/s
same,mass density,x1 = 1,943.94 ± 0.85 kg/m3
same,speed of sound,x1 = 1,1457.5 ± 5.8 m/s
